According to ChEMBL document CHEMBL5247584, “Design, synthesis and evaluation of fused hybrids with acetylcholinesterase inhibiting and Nrf2 activating functions for Alzheimer's disease” (Eur J Med Chem, 2022):
Calls of active or inactive are those of the source. The calls are words filed in the database; no cut-off is given here.

Legend:
PC-12 = assay: Cytoprotective activity against H2O2-induced cell damage in rat PC12 cells assessed as reduction in cell injury measured after 24 hrs by MTT assay relative to control; assay type: functional, cell-based; conditions: dose 1-20 µM
[1] = target: T1, Nuclear factor erythroid 2-related factor 2 (Rattus norvegicus) (UniProt O54968); assay: Activation of Nrf2 pathway in rat PC-12 cells assessed as fold increase in HO-1 expression level at 1 to 20 uM measured at 6 hrs by qRT-PCR analysis; assay type: cell-based; conditions: PC12, filed as activator, dose 1-20 µM
T1 sequence (whole entry): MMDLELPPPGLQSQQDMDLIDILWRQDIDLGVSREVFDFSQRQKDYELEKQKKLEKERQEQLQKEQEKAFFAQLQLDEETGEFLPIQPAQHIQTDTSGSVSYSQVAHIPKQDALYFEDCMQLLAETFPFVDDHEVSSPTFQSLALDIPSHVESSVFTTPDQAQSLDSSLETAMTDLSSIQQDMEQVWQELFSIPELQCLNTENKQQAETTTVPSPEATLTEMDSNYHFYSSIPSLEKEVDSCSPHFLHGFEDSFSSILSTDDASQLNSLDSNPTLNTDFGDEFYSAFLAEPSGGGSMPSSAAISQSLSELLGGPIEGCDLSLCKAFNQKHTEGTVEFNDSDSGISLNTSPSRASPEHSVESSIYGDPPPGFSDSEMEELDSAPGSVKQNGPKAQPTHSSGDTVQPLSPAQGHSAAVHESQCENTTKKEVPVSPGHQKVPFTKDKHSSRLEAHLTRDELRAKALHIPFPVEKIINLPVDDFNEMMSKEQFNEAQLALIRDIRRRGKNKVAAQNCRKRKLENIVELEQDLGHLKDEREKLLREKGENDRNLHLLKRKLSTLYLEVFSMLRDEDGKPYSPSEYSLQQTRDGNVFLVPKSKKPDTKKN

Mus musculus [2] = assay: Antialzheimer activity against scopolamine-induced cognitive impairment ICR mouse model assessed as distance to reach target at 3 mg/kg, po administered once a day for 10 days and measured after 5 to 10 days by Morris water maze test; assay type: functional, organism-based; conditions: time 5-10 day
Acetylcholinesterase = Acetylcholinesterase (Homo sapiens, UniProt P22303); assay: Inhibition of human AChE using ATC and BTC iodide as substrate preincubated for 5 mins followed by substrate addition and measured after 2 mins by DTNB reagent based assay
HepG2-ARE-C8 = assay: Cytotoxicity against human HepG2-ARE-C8 cells assessed as reduction in cell viability at 5 and 20 uM measured for 24 hrs by MTT assay; assay type: functional, cell-based
BV-2 [3] = assay: Antiinflammatory activity against LPS-injured mouse BV-2 cells assessed as decrease in IL-1beta level at 5 uM by immunofluorescence staining based analysis; assay type: functional, cell-based
Mus musculus [4] = assay: Cognitive enhancing effect in amyloid beta (1 to 42)-induced ICR mouse model assessed as increase in ACh level at 10 mg/kg […] by ELISA; assay type: functional, organism-based
Mus musculus [5] = assay: Neuroprotective activity against Abeta1-42-induced ICR mouse at 20 mg/kg, po by ELISA analysis; assay type: functional, organism-based
[6] = target: T1, Nuclear factor erythroid 2-related factor 2 (Rattus norvegicus); assay: Activation of Nrf2 pathway in rat PC-12 cells assessed as fold increase in Nrf2 level at 20 uM measured at 2 hrs by qRT-PCR analysis; assay type: cell-based; conditions: PC12, filed as activator
BV-2 [7] = assay: Antiinflammatory activity against LPS-injured mouse BV-2 cells assessed as decrease in IL-6 level at 5 uM by immunofluorescence staining based analysis; assay type: functional, cell-based
[8] = target: T1, Nuclear factor erythroid 2-related factor 2 (Rattus norvegicus); assay: Activation of Nrf2 pathway in rat PC-12 cells assessed as fold increase in HO-1 level at 20 uM measured at 2 hrs by qRT-PCR analysis; assay type: cell-based; conditions: PC12, filed as activator
Mus musculus [9] = assay: Neuroprotective activity against Abeta1-42-induced ICR mouse at 10 mg/kg, po by ELISA analysis; assay type: functional, organism-based
[10] = Hepatotoxicity in […] assessed as effect on ALT level; assay type: toxicity, cell-based
SH-SY5Y [11] = assay: Antiproliferative activity against human SH-SY5Y cells assessed as reduction in cell viability measured for 24 hrs by MTT assay; assay type: functional, cell-based
Mus musculus [12] = assay: Antiinflammatory activity Abeta1-42-induced against ICR mouse assessed as increase in TGF-beta1 level at 10 mg/kg, po by ELISA analysis; assay type: functional, organism-based
SH-SY5Y [13] = assay: Neuroprotective activity against Abeta1-42-induced human SH-SY5Y cells assessed as restoration of cell viability preinubated for 2 hrs followed by Abeta1-42 induction and measured after 24 hrs by MTT assay; assay type: functional, cell-based; conditions: time 26.0 hrs
Mus musculus [14] = assay: Antiinflammatory activity Abeta1-42-induced against ICR mouse assessed as increase in TGF-beta1 level at 20 mg/kg, po by ELISA analysis; assay type: functional, organism-based
Mus musculus [15] = assay: Antialzheimer activity against scopolamine-induced cognitive impairment ICR mouse model assessed as decrease in arrival time at 3 mg/kg, po administered once a day for 10 days and measured after 5 to 10 days by Morris water maze test; assay type: functional, organism-based; conditions: time 5-10 day
Mus musculus [16] = assay: Antialzheimer activity against scopolamine-induced cognitive impairment ICR mouse model assessed as reduction in escape latency at 3 mg/kg, po administered once a day for 10 days and measured after 5 to 10 days by Morris water maze test; assay type: functional, organism-based; conditions: time 5-10 day
[17] = target: T1, Nuclear factor erythroid 2-related factor 2 (Rattus norvegicus); assay: Activation of Nrf2 pathway in rat PC-12 cells assessed as fold increase in GCLM expression level at 1 to 20 uM measured at 6 hrs by qRT-PCR analysis; assay type: cell-based; conditions: PC12, filed as activator, dose 1-20 µM
[18] = target: T1, Nuclear factor erythroid 2-related factor 2 (Rattus norvegicus); assay: Activation of Nrf2 pathway in rat PC-12 cells assessed as increase in NQO1 level at 20 uM measured after 6 hrs by Western blot analysis; assay type: cell-based; conditions: PC12, filed as activator
[19] = target: T1, Nuclear factor erythroid 2-related factor 2 (Rattus norvegicus); assay: Activation of Nrf2 pathway in rat PC-12 cells assessed as fold increase in GCLM level at 20 uM measured at 2 hrs by qRT-PCR analysis; assay type: cell-based; conditions: PC12, filed as activator
SH-SY5Y [20] = assay: Neuroprotective activity against Abeta1-42-induced human SH-SY5Y cells assessed as inhibition of ROS production preincubated for 24 hrs followed by Abeta1-42 induction and measured after 24 hrs by DCFH-DA staining based fluorescence microscopic anlaysis; assay type: functional, cell-based; conditions: dose 5.0 µM
SH-SY5Y [21] = assay: Neuroprotective activity against Abeta1-42-induced human SH-SY5Y cells assessed as reduction in cell damage preinubated for 2 hrs followed by Abeta1-42 induction and measured after 24 hrs by MTT assay; assay type: functional, cell-based; conditions: time 26.0 hrs
[22] = target: T1, Nuclear factor erythroid 2-related factor 2 (Rattus norvegicus); assay: Activation of Nrf2 pathway in rat PC-12 cells assessed as increase in HO-1 level at 20 uM measured after 6 hrs by Western blot analysis; assay type: cell-based; conditions: PC12, filed as activator
[23] = Hepatotoxicity in […] assessed as effect on AST level; assay type: toxicity, cell-based
Mus musculus [24] = assay: Antiinflammatory activity Abeta1-42-induced against ICR mouse assessed as increase in TGF-beta1 level at 10 mg/kg, po in presence of presence of donepezil by ELISA analysis; assay type: functional, organism-based
Mus musculus [25] = assay: Antialzheimer activity against scopolamine-induced cognitive impairment ICR mouse model assessed as confuse escape tracks at 3 mg/kg, po administered once a day for 10 days and measured after 5 to 10 days by Morris water maze test; assay type: functional, organism-based; conditions: time 5-10 day
[26] = target: T1, Nuclear factor erythroid 2-related factor 2 (Rattus norvegicus); assay: Activation of Nrf2 pathway in rat PC-12 cells assessed as increase in Nrf2 accumulation in nucleus at 20 uM measured after 1 to 5 hrs by Western blot analysis; assay type: cell-based; conditions: PC12, filed as activator, time 1-5 hrs

Sequence of Acetylcholinesterase (P22303 whole entry): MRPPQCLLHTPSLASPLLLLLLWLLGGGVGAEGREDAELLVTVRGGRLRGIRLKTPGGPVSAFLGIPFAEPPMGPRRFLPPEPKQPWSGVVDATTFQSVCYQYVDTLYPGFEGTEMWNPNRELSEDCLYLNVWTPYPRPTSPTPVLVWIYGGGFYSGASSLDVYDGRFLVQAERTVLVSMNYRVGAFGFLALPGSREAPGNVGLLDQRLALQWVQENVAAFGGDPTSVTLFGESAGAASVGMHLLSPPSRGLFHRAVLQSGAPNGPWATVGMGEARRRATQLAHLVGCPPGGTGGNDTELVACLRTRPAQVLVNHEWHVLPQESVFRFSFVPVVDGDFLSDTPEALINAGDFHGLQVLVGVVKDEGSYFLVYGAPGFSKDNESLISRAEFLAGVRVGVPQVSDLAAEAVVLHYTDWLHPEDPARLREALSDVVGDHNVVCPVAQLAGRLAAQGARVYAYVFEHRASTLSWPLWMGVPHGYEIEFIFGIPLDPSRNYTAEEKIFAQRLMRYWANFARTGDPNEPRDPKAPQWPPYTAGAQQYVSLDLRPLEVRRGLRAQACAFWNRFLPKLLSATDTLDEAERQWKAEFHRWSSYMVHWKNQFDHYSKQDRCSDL

With `Cc1ccc(-c2noc(-c3cccc(OCC4CCN(Cc5cccc(F)c5)CC4)c3)n2)cn1` the Activity (PC-12) was “Dose-Dependent Effect”, the fold change (FC) [1] was 4 and the Activity (Mus musculus [2]) was “Active”. For the same compound, the IC50 (Acetylcholinesterase) was 380 nM, the Activity (HepG2-ARE-C8) was “inactive” and the Activity (BV-2 [3]) was “inactive”. The Activity (Mus musculus [4]) was “Active”, the Activity (Mus musculus [5]) was “inactive” and the fold change (FC) [6] was 4. For the same compound, the Activity (BV-2 [7]) was “inactive”, the fold change (FC) [8] was 4 and the Activity (Mus musculus [9]) was “Active”. The Activity [10] was “Non-Toxic”, the Activity (SH-SY5Y [11]) was “inactive” and the Activity (Mus musculus [12]) was “Active”. The Activity (SH-SY5Y [13]) was “Active”, the Activity (Mus musculus [14]) was “Active” and the Activity (Mus musculus [15]) was “Active”. For the same compound, the Activity (Mus musculus [16]) was “Active”, the fold change (FC) [17] was 4 and the Activity [18] was “Active”. The fold change (FC) [19] was 8, the Activity (SH-SY5Y [20]) was “Dose-Dependent Effect” and the Activity (SH-SY5Y [21]) was “Active”. For the same compound, the Activity [22] was “Active”, the Activity [23] was “Non-Toxic” and the Activity (Mus musculus [24]) was “Active”. The Activity (Mus musculus [25]) was “Active” and the Activity [26] was “Active”.
